From patent US10137102B2, “Oligomeric forms of 3-hydroxybutyrate” (Oulun Yliopisto, priority 2014, dated 2018)

Assays:
[1] = HOSC assay (fluorometric .OH scavenging capacity assay); assay type: biochemical; conditions: for hydroxyl radical scavenging activity (in words) / .OH scavengers, times better than ascorbic acid / .OH scavengers, times better than glutathione: FIG. 1; for hydroxyl radical scavenging activity (in words): compared with L-ascorbic acid, L-glutathione and 3-hydroxybutyric acid; for .OH scavengers, times better than ascorbic acid / .OH scavengers, times better than glutathione: HOSC assay under Fenton's reaction, against Trolox; for .OH scavengers, times better than ascorbic acid: comparator ascorbic acid; for .OH scavengers, times better than glutathione: comparator glutathione; for scavenging capacity, times better compared to 3-HB monomer, 3-hydroxybutyric acid (3-HBA): HOSC assay, comparator commercial 3-HBA
Procedure: HOSC Assay (Fluorometric .OH Scavenging Capacity Assay)
Assay reactions were prepared according to Moore et al. (2006) and analyzed in black 96-well polystyrene plates (FluoroNunc, Thermo Scientific) with a Victor3 multilabel plate reader (PerkinElmer, Turku, Finland). Each reaction mixture contained 170 μl of 9.28×10^−8 M fluorescein (FL) prepared in 75 mM sodium phosphate buffer (pH 7.4), 30 μl of blank or sample or standard, 40 μl of 0.1990 M H2O2, and 60 μl of 3.43 mM FeCl3, pipetted to the 96-well plate in same order. Trolox standards (20, 40, 60, 80, and 100 μM), control solutions of glutathione, vitamin C, 3-HB monomer (3-hydroxybutyric acid, 3-HBA) (Sigma-Aldrich, St. Louis, Mo.), and the 3-HB oligomer samples were freshly prepared in 50% acetone for each assay. Each reaction was pipetted onto the 96-well plate in triplicate. Fluorescence was measured at the excitation wavelength of 485 nm and the emission wavelength of 535 nm. Read time for each well was 0.1 s, and each plate was read once per minute for 3 h. Based on the area under the curve (AUC) of the Trolox concentrations and the net area under the fluorescein decay curve (Ou et al. 2001), the relative HOSC values were calculated by using the regression equation for the pure compounds. Values were expressed as Trolox equivalents (TE), where one micromole of TE corresponds to one micromole of sample. The experiment was repeated three times.
Calculation of Area Under Curve (AUC) Values: AUC=0.5+f1/f0+f2/f0+f3/f0+ . . . +fi−1/f0+0.5(fi/f0) f0=the initial fluorescence reading at 0 min fi=the final fluorescence reading Calculation of Relative HOSC Values for Pure Compounds: [(AUCsample−AUCblank)/(AUCTrolox−AUCblank)]×(Molarity of Trolox/Molarity of sample)] Iron-Catalyzed Hydroxyl Radical Formation by Haber-Weiss Driven Fenton Reaction (Liochev 1999, Kehrer 2000): Fe^3++O.^2−→Fe^2++O2 (1) Fe^2++H2O2→Fe^3++OH^−+OH.(Fenton reaction) (2)
The Net Reaction: O.^2−+H2O2→O2+OH^−+OH. (3)
Fluorometric .OH scavenging capacity (HOSC) assays for 3-HB mono-, di- and trimers (molecules of general formula 1, wherein n is 1 and 2, respectively), along with glutathione and ascorbic acid was performed. […] Oligomers of 3-HB having a chain length longer than four units had low antioxidant activity.

[2] = tested on: yeast GSH pathway deletion mutants gsh1Δ and gsh2Δ; assay type: cell-based, S. cerevisiae; conditions: FIG. 2, 2.5 mM H2O2, 65 μM FeCl3
Procedure: Yeast strains (gsh1Δ (YJL101c) and gsh2Δ (YOL049w); EUROSCARF) were streaked from glycerol stocks onto YEPD agar plates (1% w/v Bacto yeast extract; 2% w/v Bacto peptone; 2% w/v D-glucose; 2% w/v agar) and incubated at +30° C. for 48 h. Yeast pre-cultures were inoculated from the plates and grown in liquid SG minimal medium (0.67% w/v yeast nitrogen base without amino acids; 2% w/v glucose with appropriate supplements: uracil, 0.02 mg/ml; amino acids, 0.03 mg/ml) at +30° C. in orbital shaker with 180 rpm to stationary phase (1.0-1.2 OD600). Growth was measured spectrophotometrically at 600 nm (OD600) and the cell densities were adjusted to 1.0 OD600 before inoculation of the final density of 0.25 OD600 into each assay reaction.
To validate the alleviation of oxidative stress in living cells and to identify the cellular target proteins for hydroxyl radical scavenging in eukaryotic cells, a yeast deletion mutant bioassay was developed on the basis of HOSC assay (Moore et al. 2006). Hydroxyl radicals were generated under physiological pH (7.4) in Fenton-like Fe^3+/H2O2 reaction. The original assay settings were adjusted for yeast cells in phosphate buffered SG medium, and the pH and O2 levels were monitored by SENBIT® system (Vasala et al. 2006). The concentration of hydrogen peroxide was optimized to a sub-lethal level (2.5 mM) and the reaction was supplemented with appropriate amount of FeCl3 (0.0646 mM) to produce a constant flux of .OH radicals.
The total reaction volume was down-scaled to 1 ml, which made the assay suitable for the natural products low in quantity. […]
All treatments were pipetted in triplicate, and the experiment was repeated three times. Cell growth was monitored at +30° C. for 72 hours and Petri plates were scanned digitally to high-quality computer images after 48 and 72 hours. Hydroxyl radical-induced stress and the alleviation of stress by antioxidant compounds in various deletion mutant strains of S. cerevisiae were evaluated visually.

[3] = tested on: Shoot tips of Scots pine; assay: Viability assay on pine shoot tips; assay type: cell-based, Pinus sylvestris L.; conditions: FIG. 3; medium including molecules (1) and (2); after five weeks; control shoot tip dead
Procedure: Viability Assay on Pine Shoot Tips Shoot tips (n=9-13) of Scots pine (Pinus sylvestris L.) were collected from young (>10 years) trees and surface-sterilized in 70% ethanol for 1 min and in 6% Ca(ClO)2 for 20 min, and rinsed thoroughly three times with sterile water. After rinsing in sterile water, the shoot tips (buds) were aseptically peeled in a laminar flow hood and placed on the media. The pine shoot tips were grown in 8/16 h photoperiod at +25±1° C. in the presence and absence of molecules of general formula I, wherein n is from 2 to 10. The viability of the pine tissue was assessed for up to 6 weeks visually (FIG. 3) and by 1% (w/v) acetocarmine staining. The viability on each fraction was recorded as percentage of live buds. The experiment was twice with each oligomer (mono- to decamer) on each Petri plate containing 18-31 pine shoot tips.

SMILES	hydroxyl radical scavenging activity (in words) [1]	.OH scavengers, times better than ascorbic acid [1] [times]	.OH scavengers, times better than glutathione [1] [times]	scavenging capacity, times better compared to 3-HB monomer, 3-hydroxybutyric acid (3-HBA) [1] [times]	reversal of hypersensitivity of yeast mutants to hydroxyl radical stress (in words) [2]	state of Scots pine shoot tip (in words) [3]	antioxidant capacity against hydroxyl radicals (in words) ([1]; compared with 3-hydroxybutyric acid or ascorbic acid)
COC(=O)CC(C)OC(=O)CC(C)OC(=O)CC(C)O (centres unmarked) [Compound 2]	significantly better	10	3	10	reversal of hypersensitivity	alive	–
COC(=O)CC(C)OC(=O)CC(C)O (centres unmarked) [Compound 1, 3-hydroxybutyrate methyl ester dimer]	significantly better	10	3	10	reversal of hypersensitivity	alive	more than tenfold higher
N[C@@H](CCC(=O)N[C@@H](CS)C(=O)NCC(=O)O)C(=O)O [glutathione, reference compound]	–	–	–	–	reversal of hypersensitivity	–	–
